The nature of series [1]: Cytotoxicity test (WST-8), CHO-K1. Format: cell-based. Conditions: Chinese hamster, CHO-K1 ovary cells; CHO-K1, 24 hours. The procedure: (§1) To investigate the cytotoxicity of the derivative of the present invention, 5 kinds of cell lines (VERO: African green monkey kidney cell line, HFL-1: human embryonic lung cell line, L929: NCTC clone 929, mouse fibroblast cell line, NIH 3T3: mouse embryonic fibroblast cell line, and CHO-K1: Chinese hamster ovary cell line) were distributed in a 96-well plate at the density of 1×10^4 cells/well, which were treated with the compound of the present invention for 24 hours. The water-soluble tetrazolium salt WST-8 was added thereto. The orange colored formazan dye degraded by dehydrogenase in the live cells was read, followed by nonlinear regression to determine 50% growth inhibition concentration.
For orientation: Formazan colour is commonly taken as a measure of viable cells.

Series [2] in a line: Cytotoxicity test (WST-8), VERO. Format: cell-based. The settings on record: African green monkey, VERO kidney cells. The procedure: as §1
In a further series the target is T1, NFAT5 (Mus musculus, UniProt Q9WV30).
T1 construct: endogenous in cells; host or cells: RAW264.7
Put plainly: NFAT5 reporter screening (GFP, HCS) in LPS-treated Raw264.7 cells. The settings on record: for Inhibition rate of NFAT5 transcription (%): Raw264.7 reporter, LPS 1 μg/ml, 48 hours; for inhibiting NFAT5 activity (in words): Table 3 and FIG. 1. Format: cell-based. The procedure: To investigate whether or not the derivative of the present invention could inhibit the transcriptional activity of NFAT5, NFAT5 reporter screening was performed. A plasmid vector was constructed by eliminating CMV promoter sequence from the backbone and inserting NFAT5 binding site sequence ([…]) instead. Raw264.7 cells transfected with the vector were cultured in 10% FBS-PRMI (supplemented with 500 μg/ml G418). The cells were distributed in a 96-well plate at the density of 3×10^3 cells/well, followed by further culture for one more day. The cells were treated with LPS at the concentration of 1 μg/ml for 48 hours. Then, the cells were fixed and the expression level of GFP was measured by HCS fluorescence image (Thermo, ArrayScan^VTI).

Series [3] in a line: Cytotoxicity test (WST-8), NIH 3T3. Format: cell-based. The settings on record: mouse, NIH 3T3 embryonic fibroblast cells; NIN3T3, 24 hours. The procedure: as §1
The next series relates to NFATc. The experiment in a line: NFAT (NFATc) transcriptional activity, THP1-XBlue-MD2-CD14 cells, SEAP. Format: cell-based. Conditions: LPS 1 μg/ml, 24 hours, FIG. 2B. The procedure:
To evaluate the transcriptional activity of NFAT, THP1-XBlue-MD2-CD14 cells were cultured in 10% FBS-RPMI (supplemented with 200 μg/ml of Zeocin and 250 μg/ml of G418). First, the cells were distributed in a 96-well plate at the density of 2×10^4 cells/well, followed by culture. 1 μg/ml of LPS and the compound of the invention were added thereto, followed by culture for 24 hours. 20 μl of the supernatant was added with 180 μl of secreted embryonic alkaline phosphatase (SEAP) detection medium, followed by culture for 2 hours. Then, OD655 was measured.

The nature of series [4]: Metabolic stability in human liver microsomes. Format: in vitro ADME. The settings on record: human liver microsome fractions, 30 minutes. The procedure:
(§2) Particularly, each compound was added to rat and human liver microsome fractions, followed by culture for 30 minutes. Each compound was administered via intravenous injection (iv) and oral-administration (po) to rat at the concentration of 5 mg/kg, followed by making pharmacokinetic profiles.
For orientation: Liver microsomes are vesicles of endoplasmic reticulum, rich in cytochrome P450 enzymes.

The nature of series [5]: Cytotoxicity test (WST-8), HFL-1. Format: cell-based. The settings on record: human, HFL-1 embryonic lung cells; HFL-1, 24 hours. The procedure: as §1
The test system of another series is iNOS. The experiment in a line: Inhibition of LPS-induced iNOS induction in Raw264.7 cells (Griess reagent). Format: cell-based. Conditions: Mus musculus, Raw264.7, LPS 100 ng/ml, 24 hours, read-out: Inhibition rate of iNOS induction (%). The procedure:
To investigate whether or not the derivative of the present invention could inhibit iNOS inducement, Raw264.7 cells (mouse macrophages) were distributed in a 384-well plate at the density of 3×10^4 cells/well. The cells were treated with LPS at the concentration of 100 ng/ml, followed by culture at 37° C. for 24 hours. The concentration of […] increased in the medium was measured by using Griess reagent. The inhibition rate was calculated by mathematical formula based on the detected signals. The results are shown in Table 2. % inhibition=(mean value of sample−mean value of negative control)/(mean value of positive control −mean value of negative control)×100 [Mathematical Formula 1]

A short description of series [6]: Metabolic stability in rat liver microsomes. Conditions: rat liver microsome fractions, 30 minutes. Format: in vitro ADME. As to the method:
as §2

Series [7] can be described thus: Cytotoxicity test (WST-8), L929. Format: cell-based. The settings on record: mouse, L929 fibroblast cells (NCTC clone 929); L929, 24 hours. As to the method:
as §1

Molecules are shown by their SMILES.

T1 sequence (Q9WV30 whole entry): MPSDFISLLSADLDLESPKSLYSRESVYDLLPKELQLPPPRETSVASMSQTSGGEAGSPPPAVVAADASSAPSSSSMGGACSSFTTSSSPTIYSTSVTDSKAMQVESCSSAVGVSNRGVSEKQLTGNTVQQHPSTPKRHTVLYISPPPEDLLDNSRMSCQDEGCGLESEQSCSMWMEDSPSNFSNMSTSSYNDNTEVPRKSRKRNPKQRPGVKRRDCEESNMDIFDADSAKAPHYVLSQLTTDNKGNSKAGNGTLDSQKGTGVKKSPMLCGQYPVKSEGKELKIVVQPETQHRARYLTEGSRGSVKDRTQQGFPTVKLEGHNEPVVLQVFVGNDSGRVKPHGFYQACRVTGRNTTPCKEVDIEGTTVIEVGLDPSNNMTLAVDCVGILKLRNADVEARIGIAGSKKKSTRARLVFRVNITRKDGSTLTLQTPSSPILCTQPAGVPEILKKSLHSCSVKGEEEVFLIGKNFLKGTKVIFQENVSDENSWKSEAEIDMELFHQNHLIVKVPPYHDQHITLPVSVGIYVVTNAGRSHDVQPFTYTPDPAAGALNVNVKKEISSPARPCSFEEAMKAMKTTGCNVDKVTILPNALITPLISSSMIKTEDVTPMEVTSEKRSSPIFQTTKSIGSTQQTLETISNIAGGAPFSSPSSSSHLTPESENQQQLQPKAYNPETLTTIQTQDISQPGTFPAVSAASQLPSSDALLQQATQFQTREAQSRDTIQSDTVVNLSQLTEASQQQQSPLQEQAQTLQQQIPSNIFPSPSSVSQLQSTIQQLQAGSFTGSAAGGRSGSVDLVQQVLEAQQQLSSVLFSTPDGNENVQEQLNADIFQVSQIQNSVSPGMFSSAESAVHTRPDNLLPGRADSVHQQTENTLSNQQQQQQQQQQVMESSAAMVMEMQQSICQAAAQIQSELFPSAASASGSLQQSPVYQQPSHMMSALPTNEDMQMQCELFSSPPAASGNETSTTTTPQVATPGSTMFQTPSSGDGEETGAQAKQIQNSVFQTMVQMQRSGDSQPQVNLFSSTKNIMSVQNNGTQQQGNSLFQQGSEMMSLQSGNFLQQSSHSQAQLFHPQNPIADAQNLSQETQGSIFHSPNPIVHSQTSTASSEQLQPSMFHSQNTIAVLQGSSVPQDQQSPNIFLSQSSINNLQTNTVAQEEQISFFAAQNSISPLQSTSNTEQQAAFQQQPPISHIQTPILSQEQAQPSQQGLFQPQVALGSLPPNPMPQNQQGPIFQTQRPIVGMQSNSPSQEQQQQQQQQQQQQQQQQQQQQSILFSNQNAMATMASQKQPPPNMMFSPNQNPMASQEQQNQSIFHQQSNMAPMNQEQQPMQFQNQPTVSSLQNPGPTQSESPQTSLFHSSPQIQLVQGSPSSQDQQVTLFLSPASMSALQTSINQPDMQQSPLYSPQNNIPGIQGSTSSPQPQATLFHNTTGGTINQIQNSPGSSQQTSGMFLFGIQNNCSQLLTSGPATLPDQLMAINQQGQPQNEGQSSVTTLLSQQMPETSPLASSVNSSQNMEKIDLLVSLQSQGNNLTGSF

What is called GI50 is the concentration at which growth is held to half of that of the control. One may read the inhibition as the drop in the measured response relative to a control, in per cent. For the compound `COc1ccc2c(Cc3c(F)cccc3F)c3n(c(=O)c2c1OC)CCc1cc2c(cc1-3)OCO2` [Example 3, 13-(2,6-difluorobenzyl)-9,10-dimethoxy-5H-[1,3]dioxolo[4,5-g]isoquinolino[3,2-a]isoquinoline-8(6H)-one], the 50% growth inhibitory concentration (GI50) at 24 h in [1] amounted to 16.7 µM; in series [2], 84.9 µM; in series [3], 10.2 µM; in series [5] it was 32.8 µM; in series [7] it was 47.7 µM. Also, the “Inhibition rate of NFAT5 transcription (%)” value at NFAT5 (1 μM) worked out at 24.6%; at NFAT5 (10 μM), 108.8%. Also, the “inhibiting NFAT5 activity (in words)” value against NFAT5 is reported as “remarkably excellent in inhibiting NFAT5 activity”. For the same compound, in the series with NFATc, the “inhibition of NFAT promoter / transcriptional activity (in words)” value is given as “slightly”. In series [4], the “remaining compound, Human (%)” value was determined as 63.7 ± 2.4%. For the same compound, the inhibition at 1 µM with iNOS came out at 74.1%. For the same compound, the inhibition at 10 µM with iNOS was 113%. In addition, in [6], the “remaining compound, Rat (%)” value was determined as 18.5 ± 5.2%.

Regarding `COc1ccc2c(Cc3ccccn3)c3n(c(=O)c2c1OC)CCc1cc2c(cc1-3)OCO2` [Example 6, 9,10-dimethoxy-13-(pyridine-2-ylmethyl)-5,6-dihydro-[1,3]dioxolo[4,5-g]isoquinolino [3,2-a]isoquinoline-8(6H)-one], the GI50 at 24 h in [1], in [2], in series [3], in series [5] and in series [7] was above 100 µM throughout. Further, the “Inhibition rate of NFAT5 transcription (%)” value at NFAT5 (1 μM) is 9.9%; on NFAT5 (10 μM), 67.9%. Moreover, the “inhibiting NFAT5 activity (in words)” value on NFAT5 was “remarkably excellent in inhibiting NFAT5 activity”. For the same compound, the inhibition at 1 µM in the series on iNOS turned out to be 7.2%. The inhibition at 10 µM in the series on iNOS came out at 115%.

Consider `O=C1CC2(CCCC2)CC(=O)N1CCCCN1CCN(c2ncccn2)CC1` [buspirione, reference compound], for which the “remaining compound, Human (%)” value in [4] is given as 3.88 ± 0.24%. Besides, the “remaining compound, Rat (%)” value in series [6] was determined as 0.82 ± 0.16%.

The record behind these values is patent publication US9650389B2, “8-oxoprotoberberine derivative or pharmaceutically acceptable salt thereof, preparation method therefor and pharmaceutical composition for preventing or treating diseases associated with activity of NFAT5, containing same as active ingredient” (Korea Research Institute of Chemical Technology, priority 2013, dated 2017).
